Data taken from ChEMBL document CHEMBL1201862, “PubChem BioAssay data set” (2004).
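Briefly, cells in 96-well plates were exposed to five compound concentrations for 48 h, and endpoints were estimated by linear interpolation. GI50: concentration for 50% inhibition of growth.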 The source made the active and inactive calls. Cut-off read from the data, not from the text of the source: active = GI50 up to about 1.1 µM and inactive = higher.

Experiments:
Assay in all cases: NCI anticancer screen, dose series, 48 h
M19-MEL = system: M19-MEL
SR = system: SR
ACHN = system: ACHN
SF-295 = system: SF-295
CCRF-CEM = system: CCRF-CEM
DMS-273 = system: DMS-273
OVCAR-5 = system: OVCAR-5
SW-620 = system: SW-620
SF-268 = system: SF-268
NCI-H460 = system: NCI-H460
RXF 393 = system: RXF 393
SK-MEL-28 = system: SK-MEL-28
OVCAR-3 = system: OVCAR-3
CAKI-1 = system: CAKI-1
KM12 = system: KM12
IGROV-1 = system: IGROV-1
EKVX = system: EKVX
COLO 205 = system: COLO 205

Measured: GI50

c1cc2c(cnc3cscc32)s1
inactive: M19-MEL > 100 µM | SR > 100 µM | ACHN > 100 µM | SF-295 > 100 µM | CCRF-CEM > 100 µM | DMS-273 > 100 µM | OVCAR-5 > 100 µM | SW-620 > 100 µM | SF-268 > 100 µM | NCI-H460 > 100 µM | RXF 393 > 100 µM | SK-MEL-28 > 100 µM | OVCAR-3 > 100 µM | CAKI-1 95.5 µM | KM12 > 100 µM

CCOC(=O)C1=C(C)N(NC(=O)c2ccccc2)C2(O)CCCC12C(=O)OCC (stereo not given)
inactive: M19-MEL > 100 µM | SR 73.3 µM | ACHN > 100 µM | IGROV-1 > 100 µM | SF-295 > 100 µM | DMS-273 > 100 µM | OVCAR-5 > 100 µM | SW-620 > 100 µM | SF-268 > 100 µM | NCI-H460 > 100 µM | RXF 393 > 100 µM | SK-MEL-28 > 100 µM | OVCAR-3 > 100 µM | CAKI-1 > 100 µM | KM12 > 100 µM | EKVX > 100 µM

NC(=O)N/N=C(\C(=O)C(=O)Nc1ccc(Cl)c(C(F)(F)F)c1)c1nc2ccc(C(=O)c3ccccc3)cc2nc1O
inactive: M19-MEL > 100 µM | SR 45.7 µM | ACHN 82.4 µM | IGROV-1 > 100 µM | COLO 205 > 100 µM | SF-295 > 100 µM | CCRF-CEM 55.8 µM | DMS-273 > 100 µM | OVCAR-5 > 100 µM | SW-620 > 100 µM | SF-268 70.3 µM | NCI-H460 > 100 µM | RXF 393 66.4 µM | SK-MEL-28 > 100 µM | CAKI-1 27.5 µM | KM12 77.6 µM | EKVX 27.2 µM

O=C(O)CP(=S)(S)c1ccccc1 (stereo not given)
inactive: M19-MEL > 100 µM | SR > 100 µM | ACHN > 100 µM | COLO 205 > 100 µM | SF-295 > 100 µM | CCRF-CEM > 100 µM | DMS-273 > 100 µM | SW-620 > 100 µM | SF-268 > 100 µM | NCI-H460 > 100 µM | RXF 393 > 100 µM | SK-MEL-28 > 100 µM | CAKI-1 > 100 µM | KM12 > 100 µM | EKVX > 100 µM

O=c1ccn(C2(CO)C=C(CO)C(O)C2O)c(=O)[nH]1 (stereo not given)
inactive: M19-MEL > 25.7 µM | SR > 25.7 µM | ACHN > 25.7 µM | IGROV-1 > 25.7 µM | COLO 205 > 25.7 µM | DMS-273 > 25.7 µM | SW-620 > 25.7 µM | SF-268 > 25.7 µM | NCI-H460 > 25.7 µM | RXF 393 > 25.7 µM | SK-MEL-28 > 25.7 µM | OVCAR-3 > 25.7 µM | CAKI-1 > 25.7 µM | KM12 > 25.7 µM | EKVX > 25.7 µM

CCC1=NC(CO)[C@H](c2ccccc2)O1 (stereo not given in full)
inactive: M19-MEL > 100 µM | SR > 100 µM | ACHN > 100 µM | IGROV-1 > 100 µM | COLO 205 > 100 µM | SF-295 > 100 µM | DMS-273 > 100 µM | OVCAR-5 > 100 µM | SW-620 > 100 µM | SF-268 > 100 µM | NCI-H460 > 100 µM | RXF 393 > 100 µM | SK-MEL-28 > 100 µM | OVCAR-3 > 100 µM | CAKI-1 > 100 µM | KM12 > 100 µM | EKVX > 100 µM

Oc1cc(-c2c[nH]c3ccccc23)nc2cc3c(cc12)OCO3
inactive: M19-MEL > 100 µM | SR > 100 µM | ACHN > 100 µM | IGROV-1 83.2 µM | COLO 205 > 100 µM | SF-295 92.3 µM | CCRF-CEM > 100 µM | DMS-273 > 100 µM | SW-620 > 100 µM | SF-268 > 100 µM | NCI-H460 > 100 µM | RXF 393 > 100 µM | SK-MEL-28 > 100 µM | OVCAR-3 8.61 µM | EKVX > 100 µM
